The supplement of paper PMC12317010
Counter-ions that a name gives are not always drawn.

Assay: collision cross section in nitrogen (drift tube, single-field); higher = larger gas-phase ion size
[1] = ion type: [M+H], ion source: APCI, ion mode: Positive
[2] = ion type: [M+H], ion source: ESI, ion mode: Positive
[3] = ion type: [M-H], ion source: ESI, ion mode: Negative
[4] = ion type: [M+Na], ion source: ESI, ion mode: Positive
[5] = ion type: [M+], ion source: APCI, ion mode: Positive
[6] = ion source: ESI, ion mode: Positive, ion type: [M]+ (permanent cation)
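Further: chemical standards at 10 µM analysed by drift tube IMS-QTOF MS in about 3.95 torr nitrogen, mean of duplicate injections differing ≤1%, mass error below 10 ppm.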

Row | SMILES | collision cross section in nitrogen [1] [Å²] | collision cross section in nitrogen [2] [Å²] | collision cross section in nitrogen [3] [Å²] | collision cross section in nitrogen [4] [Å²] | other results
1 | S=C(NC1CCCCC1)NC1CCCCC1 [N,N'-Dicyclohexylthiourea] | 163 | 162.9 | 165.7 | – | –
2 | I [Potassium iodide] | – | – | 92.6 | – | –
3 | COc1ccc(OC)c(NC(=O)CC(C)=O)c1 [N-(2,5-Dimethoxyphenyl)-3-oxobutanamide] | – | – | 154.4 | 159.2 | –
4 | O=C(O)c1cccc(Oc2ccccc2)c1 [3-Phenoxybenzoic acid] | – | – | 155.6 | – | –
5 | O=C(O)c1cc(Cl)cc(Cl)c1O [3,5-Dichlorosalicylic acid] | – | – | 130.7 | – | –
6 | C=CC(=O)OCCOC(=O)CCC(=O)O [Acryloyloxyethyl succinate] | – | – | – | 145.9 | –
7 | COc1ccc(O)cc1 [4-Methoxyphenol] | – | – | – | – | collision cross section in nitrogen [5]: 123.7 Å²
8 | Cc1[nH]nc2c1N=C(c1ccccc1Cl)c1cc([N+](=O)[O-])ccc1N2 | 180.2 | 180 | 181.1 | – | collision cross section in nitrogen [5]: 180.3 Å²
9 | O=[N+]([O-])/N=C1\NCCN1Cc1ccc(Cl)nc1 [Imidacloprid] | – | 156 | 157.3 | 159.5 | –
10 | CC(C)(C)OC(=O)c1ccccc1C(=O)O [tert-Butyl hydrogen phthalate] | – | – | 151.6 | – | –
11 | COCCOCCOCCOCCOCCO [3,6,9,12,15-Pentaoxahexadecanol] | 151.8 | – | – | 153.3 | –
12 | CCCN[C@H]1CCc2nc(N)sc2C1 [Pramipexole dihydrochloride monohydrate] | 152.8 | 152.6 | – | – | –
13 | c1ccc2cnccc2c1 [Isoquinoline] | 122.3 | – | – | – | –
14 | O=C(NS(=O)(=O)/C=C/c1ccccc1)c1ccc(F)cc1Cl | – | – | 177.6 | 188.9 | –
15 | N=C1NC(=N)c2ccccc21 [1H-Isoindole-1,3(2H)-diimine] | – | 126.4 | – | – | –
16 | CC(C)(C)c1cc(CCC(=O)OCC(COC(=O)CCc2cc(C(C)(C)C)c(O)c(C(C)(C)C)c2)(COC(=O)CCc2cc(C(C)(C)C)c(O)c(C(C)(C)C)c2)COC(=O)CCc2cc(C(C)(C)C)c(O)c(C(C)(C)C)c2)cc(C(C)(C)C)c1O [Irganox 1010] | – | – | 354.9 | 354.9 | collision cross section in nitrogen [5]: 355.6 Å²
17 | Cc1[nH]cnc1C[C@H]1CCc2c(C)c3ccccc3n2C1=O [Fabesetron hydrochloride] | 175.1 | 174.8 | – | – | –
18 | OCCCc1cccnc1 [3-(3-Pyridyl)-1-propanol] | 128 | 128.4 | – | – | –
19 | Nc1ccc(O)c(C(=O)O)c1 [5-Aminosalicylic acid] | – | – | 127.8 | – | –
20 | Sc1nc2ccccc2s1 [2-Mercaptobenzothiazole] | – | – | 128.2 | – | –
21 | Clc1ccc(C2(Cn3cncn3)CC(Br)CO2)c(Cl)c1 (stereo unspecified) [Bromuconazole] | 172.7 | 172.6 | – | – | –
22 | NNC(=O)CCCCC(=O)NN [Hexanedihydrazide] | – | – | 138.4 | 141.5 | –

Row | SMILES | collision cross section in nitrogen [1] [Å²] | collision cross section in nitrogen [2] [Å²] | collision cross section in nitrogen [3] [Å²] | collision cross section in nitrogen [4] [Å²] | other results
23 | COC(=O)c1cccnc1 [Methyl nicotinate] | 126.6 | – | – | – | –
24 | CNC(=O)CSP(=O)(OC)OC [Omethoate] | 137.1 | – | – | 145.9 | –
25 | CCN(Cc1cccnc1)C(=O)c1cccc(Cl)c1[C@]1(C)C(=O)N(Cc2ccc(OC)cc2OC)c2ccc(Cl)cc21 | – | 241.2 | – | 233.4 | –
26 | CCCCCCCCn1sccc1=O [2-n-Octyl-4-isothiazolin-3-one] | 158.3 | 158 | – | – | –
27 | CCCCc1c(C)nc(NCC)nc1O [Ethirimol] | 152.1 | 152 | 155.2 | 167.3 | –
28 | CC(=O)CC(=O)Nc1ccc(Cl)cc1 [4'-Chloroacetoacetanilide] | – | – | 143.8 | – | –
29 | CN(CCCC(O)c1cccnc1)N=O (stereo unspecified) [4-(Methylnitrosamino)-1-(3-pyridyl)-1-butanol] | 146.4 | 146.4 | – | 152.5 | –
30 | CN1CCC[C@H]1c1cccnc1 [(-)-Nicotine] | 136.5 | 137.2 | – | – | –
31 | CC1(C)NC(=O)N(c2ccc([N+](=O)[O-])c(C(F)(F)F)c2)C1=O [Nilutamide] | – | – | 162.8 | – | –
32 | CC(C)(C)OC(=O)c1ccc(O)cc1 [tert-Butyl 4-hydroxybenzoate] | – | – | 148.2 | – | –
33 | O=C(OCc1ccccc1)c1ccccc1O [Benzyl salicylate] | – | – | 153.3 | – | –
34 | CC(C)(C)c1cc(O)c(C(C)(C)C)cc1O [2,5-Di-tert-butylbenzene-1,4-diol] | – | – | – | – | collision cross section in nitrogen [5]: 155.1 Å²
35 | CC(=O)NC1(c2cccc(F)c2)CCN(CC[C@@]2(c3ccc(Cl)c(Cl)c3)CN(c3ccccc3)C(=O)CO2)CC1 | – | 243.8 | – | 250.7 | –
36 | CC(C)(C)c1ccc(N)cc1 [4-tert-Butylaniline] | 147.3 | 147.6 | – | – | –
37 | O=C(N[C@@H](Cc1ccccc1)[C@@H](O)C(=O)N1C[C@@H](O)[C@@H](O)C1)c1cc2cc(Cl)ccc2[nH]1 [Ingliforib] | 215.9 | 216 | 206.2 | 220.4 | –
38 | COC1=CC(=O)C[C@@H](C)[C@]12Oc1c(Cl)c(OC)cc(OC)c1C2=O [Griseofulvin] | 182 | 181.6 | – | 189.6 | –
39 | CCCCOC(=O)CCCCC(=O)OCCCC [Dibutyl adipate] | – | – | – | 180.8 | –
40 | O=P(O)(O)c1ccccc1 [Phenylphosphonic acid] | – | – | 130.1 | – | –
41 | NC(=O)Nc1ccc(Cl)c(Cl)c1 [N-(3,4-Dichlorophenyl)urea] | – | – | 135.7 | – | –
42 | CCCCCCCCCCCCCC[N+](C)(C)C [Tetradonium bromide] | – | – | – | – | collision cross section in nitrogen (ion source: APCI, ion mode: Positive, ion type: [M]+ (permanent cation)): 185.1 Å²; collision cross section in nitrogen [6]: 185.7 Å²
43 | O=[N+]([O-])O [Nitric acid, calcium salt (2:1)] | – | – | 104.5 | – | –
44 | CCCCCCCCCOS(=O)(=O)O [Sodium nonyl sulfate] | – | – | 154.5 | – | –

Row | SMILES | collision cross section in nitrogen [1] [Å²] | collision cross section in nitrogen [2] [Å²] | collision cross section in nitrogen [3] [Å²] | collision cross section in nitrogen [4] [Å²] | other results
45 | CC(C)C(C(=O)OC(C#N)c1cccc(Oc2ccccc2)c1)c1ccc(OC(F)F)cc1 (stereo unspecified) [Flucythrinate] | 214.8 | – | – | 208.3 | –
46 | Cc1cc(CCC(=O)OCCOCCOCCOC(=O)CCc2cc(C)c(O)c(C(C)(C)C)c2)cc(C(C)(C)C)c1O | 233.4 | – | 237.8 | 236.4 | collision cross section in nitrogen [5]: 234.2 Å²
47 | CCCCCCCCCCCC[N+](C)(C)CC(=O)O [C12-14-Alkyldimethyl betaines] | – | – | – | – | collision cross section in nitrogen [6]: 183.8 Å²
48 | O=C(Nc1ccccc1)c1ccccc1O [Salicylanilide] | 144.8 | – | 145.5 | – | –
49 | CCOP(=S)(OCC)ON=C(C#N)c1ccccc1 [Phoxim] | – | – | 165.7 | – | –
50 | O=C(C1CCCCC1)N1CC(=O)N2CCc3ccccc3C2C1 (stereo unspecified) [Praziquantel] | 178.5 | 178.3 | – | 185.4 | –
51 | CCCCOP(=O)(CCCC)OCCCC [Dibutyl butylphosphonate] | – | – | – | 181.8 | –
52 | CC(C)(c1ccc(O)cc1)c1ccc(O)cc1 [Bisphenol A] | – | – | 161.9 | – | –
53 | Cc1ncc(C[n+]2csc(CCO)c2C)c(N)n1 [Thiamine] | – | – | – | – | collision cross section in nitrogen [6]: 162.7 Å²
54 | C[C@]12C=CC3=C4CCC(=O)C=C4CC[C@H]3[C@@H]1CC[C@@H]2O [17beta-Trenbolone] | 166.2 | 166.4 | 168.7 | 192.3 | –
55 | CC(C)OP(=O)(CP(=O)(OC(C)C)OC(C)C)OC(C)C [Tetraisopropyl methylenediphosphonate] | 174.6 | – | 177.7 | 185 | –
56 | CCCN(CCC)c1c([N+](=O)[O-])cc(S(C)(=O)=O)cc1[N+](=O)[O-] [Nitralin] | – | – | 177 | – | –
57 | CSc1nnc(C(C)(C)C)c(=O)[nH]1 [Metribuzin-DA] | 144.2 | 145.2 | 144.8 | 161.3 | –
58 | CC(C)(c1ccc(O)cc1)c1ccc(C(C)(C)c2ccc(O)cc2)cc1 [Bisphenol P] | – | – | 180.1 | – | –
59 | CCn1c2ccccc2c2cc([N+](=O)[O-])ccc21 [9-Ethyl-3-nitro-9H-carbazole] | – | 152 | – | – | –
60 | O=[N+]([O-])c1ccc2c(c1)Cc1ccccc1-2 [2-Nitrofluorene] | – | – | 141.1 | – | –
61 | O=S(=O)(O)c1ccc(N=Nc2c(O)ccc3ccccc23)cc1 [C.I. Acid Orange 7] | – | – | 182.7 | – | –
62 | CCOC(=O)c1cn2nc(OP(=S)(OCC)OCC)cc2nc1C [Pyrazophos] | 192.5 | 191.7 | – | 195.9 | –
63 | N#Cc1ccc(CC(=O)c2cccc(C(F)(F)F)c2)cc1 [4-{2-Oxo-2-[3-(trifluoromethyl)phenyl]ethyl}benzonitrile] | – | – | 163 | – | –
64 | CCOC(=O)n1ccn(C)c1=S [Carbimazole] | – | – | – | 148 | –
65 | O=[N+]([O-])c1ccccc1O [2-Nitrophenol] | – | – | 121.2 | – | –
